# Assay results: article PMC9569420 (Communications Biology, 2022)
# Several values for one entry are separate records, joined by “and”; a condition that tells them apart may be missing. Equal entries are not always repeated.
# Columns and labels:
# [1] = molecular target: T1, PIM1 (Homo sapiens, UniProt P11309); test: HotSpot kinase assay; type: biochemical; settings: read-out: % Enzyme Activity (relative to DMSO controls)
# T1 construct: purchased Reaction Biology Corporation
# [2] = molecular target: T2, PKN1/PRK1 (Homo sapiens, UniProt Q16512); test: HotSpot kinase assay; type: biochemical; settings: read-out: % Enzyme Activity (relative to DMSO controls)
# T2 construct: purchased Reaction Biology Corporation
# [3] = molecular target: T3, ERBB2/HER2 (Homo sapiens, UniProt P04626); test: biochemical; settings: read-out: % Enzyme Activity (relative to DMSO controls)
# T3 construct: purchased Reaction Biology Corporation
# [4] = molecular target: T4, NIM1 (Homo sapiens, UniProt Q8IY84); test: HotSpot kinase assay; type: biochemical; settings: read-out: % Enzyme Activity (relative to DMSO controls)
# T4 construct: purchased Reaction Biology Corporation
# [5] = molecular target: T5, PAK5 (Homo sapiens, UniProt Q9P286); test: HotSpot kinase assay; type: biochemical; settings: read-out: % Enzyme Activity (relative to DMSO controls)
# T5 construct: purchased Reaction Biology Corporation
# [6] = molecular target: T6, PIM2 (Homo sapiens, UniProt Q9P1W9); test: HotSpot kinase assay; type: biochemical; settings: read-out: % Enzyme Activity (relative to DMSO controls)
# T6 construct: purchased Reaction Biology Corporation
# [7] = molecular target: T7, IKKa/CHUK (Homo sapiens, UniProt O15111); test: HotSpot kinase assay; type: biochemical; settings: read-out: % Enzyme Activity (relative to DMSO controls)
# T7 construct: purchased Reaction Biology Corporation
# [8] = test system: intracellular Ca2+ response to HSV-2(G); test: calcium kinetic measurements (Fura-2), HaCat cells; type: cell-based, human; settings: for mean calcium released: CIMSS without virus (Fig 4b source data)
# Procedure: The cells were then transferred to SpectraMaxMF^e temperature-regulated chamber at 37 °C (Molecular Devices Ca) without washing; photometric data for intracellular Ca^2+ concentration [Ca^2+] were generated by exciting cells at 340 and 380 nm and measuring emission at 510 nm every minute for one hour using SoftMaxPro. 5.4 software (Molecular Devices). An intracellular calibration was performed with each experiment by determining the fluorescence ratio (340:380) in the presence of Ca-free 10 mM K2EGTA buffer (Rmin) and 10 mM CaEGTA buffer containing 10 µM ionomycin (Rmax) (C-3008, Calcium Calibration Buffer Kit #1, Invitrogen Molecular Probes).
# [9] = molecular target: T8, PAK6 (Homo sapiens, UniProt Q9NQU5); test: HotSpot kinase assay; type: biochemical; settings: read-out: % Enzyme Activity (relative to DMSO controls)
# T8 construct: purchased Reaction Biology Corporation
# [10] = molecular target: T9, STK32C/YANK3 (Homo sapiens, UniProt Q86UX6); test: HotSpot kinase assay; type: biochemical; settings: read-out: % Enzyme Activity (relative to DMSO controls)
# T9 construct: purchased Reaction Biology Corporation
# [11] = molecular target: T10, RSK3 (Homo sapiens, UniProt Q15349); test: HotSpot kinase assay; type: biochemical; settings: read-out: % Enzyme Activity (relative to DMSO controls)
# T10 construct: purchased Reaction Biology Corporation
# [12] = molecular target: T11, PKN2/PRK2 (Homo sapiens, UniProt Q16513); test: HotSpot kinase assay; type: biochemical; settings: read-out: % Enzyme Activity (relative to DMSO controls)
# T11 construct: purchased Reaction Biology Corporation
# [13] = molecular target: T12, GRK7 (Homo sapiens, UniProt Q8WTQ7); test: HotSpot kinase assay; type: biochemical; settings: read-out: % Enzyme Activity (relative to DMSO controls)
# T12 construct: purchased Reaction Biology Corporation
# [14] = molecular target: T13, MEKK3 (Homo sapiens, UniProt Q99759); test: HotSpot kinase assay; type: biochemical; settings: read-out: % Enzyme Activity (relative to DMSO controls)
# T13 construct: purchased Reaction Biology Corporation
# [15] = molecular target: T14, FRK/PTK5 (Homo sapiens, UniProt P42685); test: HotSpot kinase assay; type: biochemical; settings: read-out: % Enzyme Activity (relative to DMSO controls)
# T14 construct: purchased Reaction Biology Corporation
# [16] = molecular target: T15, TLK1 (Homo sapiens, UniProt Q9UKI8); test: HotSpot kinase assay; type: biochemical; settings: read-out: % Enzyme Activity (relative to DMSO controls)
# T15 construct: purchased Reaction Biology Corporation
# [17] = molecular target: T16, TESK2 (Homo sapiens, UniProt Q96S53); test: HotSpot kinase assay; type: biochemical; settings: read-out: % Enzyme Activity (relative to DMSO controls)
# T16 construct: purchased Reaction Biology Corporation
# [18] = molecular target: T17, ERN1/IRE1 (Homo sapiens, UniProt O75460); test: HotSpot kinase assay; type: biochemical; settings: read-out: % Enzyme Activity (relative to DMSO controls)
# T17 construct: purchased Reaction Biology Corporation
# [19] = test system: HSV-2(G); test: synchronized infection (entry) assay, HaCat cells; type: cell-based; settings: 10 μM
# Procedure: To quantify viral entry, cells were synchronously infected by allowing virus to bind to cells at 4°C for 4 h, washed, and then transferred to 37 °C. CIMSS or control DMSO was added at the time of temperature shift. At indicated times post-temperature shift, the cells were treated with a low pH buffer to inactivate virus that had not penetrated, washed, overlaid with medium containing methyl cellulose and viral plaques were counted at 48 h. Entry was also assessed by immunoblotting nuclear extracts for VP16. […] Nuclear extracts were prepared after 1 h and analyzed by western blot with antibodies targeting VP16, histone H1 and golgin-97[5]. The non-nuclear fraction was also probed for golgin-97 as a positive control. […] After 1 or 4 h of incubation, the cells were fixed. Plasma membranes were stained using Image -IT^TM LIVE Plasma Membrane kit and nuclei were stained with DAPI (Thermo Fisher Scientific, Cat 134406). The percentage of GFP + nuclei was determined by counting ~200 cells over 3–4 fields. Images were obtained with Leica SP8 microscope (objective 63 × 1.4); xz images were captured with optical slice 0.6 µm, 25–30 slices per image.
# [20] = molecular target: T18, STK21/CIT (Homo sapiens, UniProt O14578); test: HotSpot kinase assay; type: biochemical; settings: read-out: % Enzyme Activity (relative to DMSO controls)
# T18 construct: purchased Reaction Biology Corporation
# [21] = molecular target: T19, WNK1 (Homo sapiens, UniProt Q9H4A3); test: HotSpot kinase assay; type: biochemical; settings: read-out: % Enzyme Activity (relative to DMSO controls)
# T19 construct: purchased Reaction Biology Corporation
# [22] = molecular target: T20, PYK2 (Homo sapiens, UniProt Q14289); test: HotSpot kinase assay; type: biochemical; settings: read-out: % Enzyme Activity (relative to DMSO controls)
# T20 construct: purchased Reaction Biology Corporation
# [23] = molecular target: T21, TSSK3/STK22C (Homo sapiens, UniProt Q96PN8); test: HotSpot kinase assay; type: biochemical; settings: read-out: % Enzyme Activity (relative to DMSO controls)
# T21 construct: purchased Reaction Biology Corporation
# [24] = molecular target: T22, MLK4 (Homo sapiens, UniProt Q5TCX8); test: HotSpot kinase assay; type: biochemical; settings: read-out: % Enzyme Activity (relative to DMSO controls)
# T22 construct: purchased Reaction Biology Corporation
# [25] = molecular target: T23, SSTK/TSSK6 (Homo sapiens, UniProt Q9BXA6); test: HotSpot kinase assay; type: biochemical; settings: read-out: % Enzyme Activity (relative to DMSO controls)
# T23 construct: purchased Reaction Biology Corporation
# [26] = molecular target: T24, MLK2/MAP3K10 (Homo sapiens, UniProt Q02779); test: HotSpot kinase assay; type: biochemical; settings: read-out: % Enzyme Activity (relative to DMSO controls)
# T24 construct: purchased Reaction Biology Corporation
# [27] = molecular target: T25, CTK/MATK (Homo sapiens, UniProt P42679); test: HotSpot kinase assay; type: biochemical; settings: read-out: % Enzyme Activity (relative to DMSO controls)
# T25 construct: purchased Reaction Biology Corporation
# [28] = molecular target: T26, ERN2/IRE2 (Homo sapiens, UniProt Q76MJ5); test: HotSpot kinase assay; type: biochemical; settings: read-out: % Enzyme Activity (relative to DMSO controls)
# T26 construct: purchased Reaction Biology Corporation
# [29] = molecular target: T27, YES/YES1 (Homo sapiens, UniProt P07947); test: HotSpot kinase assay; type: biochemical; settings: read-out: % Enzyme Activity (relative to DMSO controls)
# T27 construct: purchased Reaction Biology Corporation
# [30] = molecular target: T28, FGFR3 (Homo sapiens, UniProt P22607); test: HotSpot kinase assay; type: biochemical; settings: read-out: % Enzyme Activity (relative to DMSO controls)
# T28 construct: purchased Reaction Biology Corporation
# [31] = molecular target: T29, KSR2 (Homo sapiens, UniProt Q6VAB6); test: biochemical; settings: read-out: % Enzyme Activity (relative to DMSO controls)
# T29 construct: purchased Reaction Biology Corporation
# [32] = molecular target: T30, CDK1/cyclin E (Homo sapiens, UniProt P06493); test: HotSpot kinase assay; type: biochemical; settings: read-out: % Enzyme Activity (relative to DMSO controls)
# T30 construct: purchased Reaction Biology Corporation
# T1 sequence (P11309 whole entry): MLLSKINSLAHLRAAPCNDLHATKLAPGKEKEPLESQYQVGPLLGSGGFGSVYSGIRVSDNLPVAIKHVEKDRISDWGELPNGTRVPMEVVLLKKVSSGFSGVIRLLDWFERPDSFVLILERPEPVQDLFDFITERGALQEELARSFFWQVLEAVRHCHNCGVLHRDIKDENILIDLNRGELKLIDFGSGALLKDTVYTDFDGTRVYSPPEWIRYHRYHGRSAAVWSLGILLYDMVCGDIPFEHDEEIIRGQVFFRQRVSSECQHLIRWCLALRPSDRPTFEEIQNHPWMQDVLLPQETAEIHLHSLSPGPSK
# T18 sequence (O14578 whole entry): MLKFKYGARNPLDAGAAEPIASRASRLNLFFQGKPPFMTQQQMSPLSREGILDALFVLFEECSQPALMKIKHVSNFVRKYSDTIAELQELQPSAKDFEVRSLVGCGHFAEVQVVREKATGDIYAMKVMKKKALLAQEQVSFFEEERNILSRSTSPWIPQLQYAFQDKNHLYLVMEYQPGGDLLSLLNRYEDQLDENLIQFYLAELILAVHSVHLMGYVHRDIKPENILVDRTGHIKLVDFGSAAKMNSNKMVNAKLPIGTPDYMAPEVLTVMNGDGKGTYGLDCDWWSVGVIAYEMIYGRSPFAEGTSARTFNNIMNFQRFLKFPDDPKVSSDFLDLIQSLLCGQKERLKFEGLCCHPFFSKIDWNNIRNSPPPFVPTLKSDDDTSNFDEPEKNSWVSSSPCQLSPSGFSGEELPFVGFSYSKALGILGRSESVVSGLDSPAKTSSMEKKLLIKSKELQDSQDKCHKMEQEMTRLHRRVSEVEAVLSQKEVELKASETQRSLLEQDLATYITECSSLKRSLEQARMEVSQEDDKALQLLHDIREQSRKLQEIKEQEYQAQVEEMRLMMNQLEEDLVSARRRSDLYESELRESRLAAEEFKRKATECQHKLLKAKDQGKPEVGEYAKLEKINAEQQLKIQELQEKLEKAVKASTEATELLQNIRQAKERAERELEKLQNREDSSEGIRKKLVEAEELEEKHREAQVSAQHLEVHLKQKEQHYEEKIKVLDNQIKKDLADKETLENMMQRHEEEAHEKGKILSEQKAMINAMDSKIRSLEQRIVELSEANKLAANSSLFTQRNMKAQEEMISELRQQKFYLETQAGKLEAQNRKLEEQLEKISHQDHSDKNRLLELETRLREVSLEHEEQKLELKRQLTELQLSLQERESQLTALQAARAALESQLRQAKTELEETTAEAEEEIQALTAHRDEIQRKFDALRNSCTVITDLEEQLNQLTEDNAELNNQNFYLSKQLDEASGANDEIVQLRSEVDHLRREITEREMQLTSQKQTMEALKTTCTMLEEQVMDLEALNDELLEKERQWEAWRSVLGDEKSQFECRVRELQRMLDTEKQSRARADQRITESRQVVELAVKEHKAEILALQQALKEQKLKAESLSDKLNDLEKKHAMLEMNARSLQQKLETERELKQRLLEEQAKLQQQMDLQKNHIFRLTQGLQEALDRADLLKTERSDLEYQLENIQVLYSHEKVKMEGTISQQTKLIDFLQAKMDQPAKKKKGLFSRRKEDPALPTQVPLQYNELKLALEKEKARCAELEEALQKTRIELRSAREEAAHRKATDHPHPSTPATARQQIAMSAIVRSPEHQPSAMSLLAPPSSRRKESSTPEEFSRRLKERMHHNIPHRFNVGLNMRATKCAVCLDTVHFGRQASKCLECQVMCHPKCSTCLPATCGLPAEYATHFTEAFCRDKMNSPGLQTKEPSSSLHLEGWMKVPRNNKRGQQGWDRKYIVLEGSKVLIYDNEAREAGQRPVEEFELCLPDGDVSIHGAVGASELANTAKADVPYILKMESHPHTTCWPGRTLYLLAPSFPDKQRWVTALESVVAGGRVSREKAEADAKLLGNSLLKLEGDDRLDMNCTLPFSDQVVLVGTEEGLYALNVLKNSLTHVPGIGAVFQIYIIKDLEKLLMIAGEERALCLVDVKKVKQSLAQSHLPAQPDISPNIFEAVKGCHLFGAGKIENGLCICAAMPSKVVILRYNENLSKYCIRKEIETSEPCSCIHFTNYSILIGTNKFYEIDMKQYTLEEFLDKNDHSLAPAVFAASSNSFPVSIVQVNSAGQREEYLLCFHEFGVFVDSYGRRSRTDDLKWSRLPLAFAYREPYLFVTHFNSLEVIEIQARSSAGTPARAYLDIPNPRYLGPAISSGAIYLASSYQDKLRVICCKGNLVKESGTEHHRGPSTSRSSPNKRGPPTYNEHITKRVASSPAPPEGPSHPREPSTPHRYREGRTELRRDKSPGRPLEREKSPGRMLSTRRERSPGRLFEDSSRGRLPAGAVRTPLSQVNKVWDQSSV
# T29 sequence (Q6VAB6 whole entry): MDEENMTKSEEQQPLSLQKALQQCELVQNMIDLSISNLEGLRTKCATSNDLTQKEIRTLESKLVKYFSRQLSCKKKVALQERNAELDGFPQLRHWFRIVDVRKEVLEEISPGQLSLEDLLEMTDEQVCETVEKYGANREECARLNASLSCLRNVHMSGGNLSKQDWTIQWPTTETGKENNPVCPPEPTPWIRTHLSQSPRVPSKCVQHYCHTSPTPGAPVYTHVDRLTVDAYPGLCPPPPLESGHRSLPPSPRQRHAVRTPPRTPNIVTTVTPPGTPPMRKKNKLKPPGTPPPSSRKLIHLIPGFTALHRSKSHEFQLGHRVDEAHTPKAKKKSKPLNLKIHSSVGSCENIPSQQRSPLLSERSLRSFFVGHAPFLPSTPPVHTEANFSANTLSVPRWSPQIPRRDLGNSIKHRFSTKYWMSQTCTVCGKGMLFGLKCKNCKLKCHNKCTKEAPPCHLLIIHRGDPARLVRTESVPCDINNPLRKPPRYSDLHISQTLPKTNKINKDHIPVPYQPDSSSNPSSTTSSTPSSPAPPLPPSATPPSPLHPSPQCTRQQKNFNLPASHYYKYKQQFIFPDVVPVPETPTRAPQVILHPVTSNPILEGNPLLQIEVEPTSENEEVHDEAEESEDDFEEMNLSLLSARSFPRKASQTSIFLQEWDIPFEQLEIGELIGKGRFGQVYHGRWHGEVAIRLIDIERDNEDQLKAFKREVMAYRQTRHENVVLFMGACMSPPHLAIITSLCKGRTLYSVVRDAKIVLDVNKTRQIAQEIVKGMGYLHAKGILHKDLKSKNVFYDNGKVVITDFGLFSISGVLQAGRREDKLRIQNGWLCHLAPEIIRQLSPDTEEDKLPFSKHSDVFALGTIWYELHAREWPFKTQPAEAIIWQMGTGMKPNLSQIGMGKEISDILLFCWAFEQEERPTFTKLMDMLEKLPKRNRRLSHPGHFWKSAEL
# T12 sequence (Q8WTQ7 whole entry): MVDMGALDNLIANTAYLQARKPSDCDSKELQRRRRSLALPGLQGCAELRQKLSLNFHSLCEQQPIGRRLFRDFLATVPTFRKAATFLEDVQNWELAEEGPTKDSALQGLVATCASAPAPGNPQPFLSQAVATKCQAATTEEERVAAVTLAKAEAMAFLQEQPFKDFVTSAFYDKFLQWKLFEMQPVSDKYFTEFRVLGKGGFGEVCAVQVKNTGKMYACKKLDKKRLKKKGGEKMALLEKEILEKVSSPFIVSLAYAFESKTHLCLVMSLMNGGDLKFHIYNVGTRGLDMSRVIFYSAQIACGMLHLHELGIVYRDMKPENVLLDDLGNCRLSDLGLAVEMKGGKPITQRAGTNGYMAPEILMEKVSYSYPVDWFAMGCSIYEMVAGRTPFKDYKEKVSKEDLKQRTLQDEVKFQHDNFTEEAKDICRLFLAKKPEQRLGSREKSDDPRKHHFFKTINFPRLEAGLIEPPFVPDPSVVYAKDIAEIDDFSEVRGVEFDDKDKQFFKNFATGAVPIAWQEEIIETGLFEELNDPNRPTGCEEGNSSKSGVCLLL
# T24 sequence (Q02779 whole entry): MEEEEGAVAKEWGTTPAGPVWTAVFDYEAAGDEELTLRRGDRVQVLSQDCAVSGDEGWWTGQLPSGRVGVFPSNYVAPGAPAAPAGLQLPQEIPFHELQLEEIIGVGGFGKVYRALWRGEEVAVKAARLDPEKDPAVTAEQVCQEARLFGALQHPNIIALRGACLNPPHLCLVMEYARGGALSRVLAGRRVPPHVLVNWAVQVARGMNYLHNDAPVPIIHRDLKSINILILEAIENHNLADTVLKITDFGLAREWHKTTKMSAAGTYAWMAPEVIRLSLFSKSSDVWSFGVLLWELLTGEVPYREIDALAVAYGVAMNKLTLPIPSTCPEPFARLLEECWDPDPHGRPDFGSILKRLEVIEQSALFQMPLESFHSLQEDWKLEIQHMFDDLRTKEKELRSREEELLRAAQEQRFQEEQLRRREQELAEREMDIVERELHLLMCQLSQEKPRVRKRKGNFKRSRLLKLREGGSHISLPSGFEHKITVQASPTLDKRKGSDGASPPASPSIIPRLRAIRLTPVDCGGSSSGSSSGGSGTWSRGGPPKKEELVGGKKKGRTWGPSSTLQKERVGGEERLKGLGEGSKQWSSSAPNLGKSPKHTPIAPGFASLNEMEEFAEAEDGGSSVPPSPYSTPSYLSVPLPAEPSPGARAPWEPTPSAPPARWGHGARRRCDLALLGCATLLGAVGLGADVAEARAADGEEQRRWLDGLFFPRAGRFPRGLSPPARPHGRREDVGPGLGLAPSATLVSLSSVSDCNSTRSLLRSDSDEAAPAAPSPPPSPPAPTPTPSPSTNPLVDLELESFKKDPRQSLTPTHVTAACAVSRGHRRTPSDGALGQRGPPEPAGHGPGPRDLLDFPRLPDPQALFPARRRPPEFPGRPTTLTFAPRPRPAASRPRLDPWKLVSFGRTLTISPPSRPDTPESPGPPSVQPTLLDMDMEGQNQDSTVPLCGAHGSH
# T21 sequence (Q96PN8 whole entry): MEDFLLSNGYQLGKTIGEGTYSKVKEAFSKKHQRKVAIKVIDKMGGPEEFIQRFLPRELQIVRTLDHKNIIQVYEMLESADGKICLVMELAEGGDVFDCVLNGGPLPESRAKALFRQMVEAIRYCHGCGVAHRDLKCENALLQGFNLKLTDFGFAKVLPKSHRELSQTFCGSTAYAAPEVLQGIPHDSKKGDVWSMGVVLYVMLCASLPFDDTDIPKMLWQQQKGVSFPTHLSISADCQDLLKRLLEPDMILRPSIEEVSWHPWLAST
smiles,measurement,setting,value
CO[C@@H]1[C@H](N(C)C(=O)CCC(=O)NCc2cn(CCCS(=O)(=O)O)nn2)C[C@H]2O[C@]1(C)n1c3ccccc3c3c4c(c5c6ccccc6n2c5c31)C(=O)NC4 [CIMSS],remaining activity at 10 µM,[1],0.88%
same,remaining activity at 10 µM,[2],2.22%
same,remaining activity at 10 µM,[3],35.9%
same,remaining activity at 10 µM,[4],46.6%
same,remaining activity at 10 µM,[5],7.72%
same,remaining activity at 10 µM,[6],21.3%
same,remaining activity at 10 µM,[7],31.6%
same,extended Ca2+ release,"[8]; 10 µM, first hour pi",significant reduction
same,initial Ca2+ transient,"[8]; 10 µM, first three minutes",did not block
same,mean calcium released,[8]; 3 minutes,38.88 and 30.45 and 39.3074 and 44.7233
same,mean calcium released,[8]; 1 hour,90.67 and 95.94 and 99.48 and 102.73
same,remaining activity at 10 µM,[9],9.79%
same,remaining activity at 10 µM,[10],20.5%
same,remaining activity at 10 µM,[11],3.38%
same,remaining activity at 10 µM,[12],6.62%
same,remaining activity at 10 µM,[13],7.19%
same,remaining activity at 10 µM,[14],6.32%
same,remaining activity at 10 µM,[15],4.49%
same,remaining activity at 10 µM,[16],26.1%
same,remaining activity at 10 µM,[17],91.2%
same,remaining activity at 10 µM,[18],8.49%
same,plaques counted at 48 h,[19]; 1 h post-temperature shift,11 and 17
same,plaques counted at 48 h,[19]; 2 h post-temperature shift,19 and 11
same,viral plaque formation,"[19]; each timepoint 0.5–2 h, p < 0.001",significant reduction
same,remaining activity at 10 µM,[20],81.7%
same,remaining activity at 10 µM,[21],110%
same,remaining activity at 10 µM,[22],2.4%
same,remaining activity at 10 µM,[23],62.2%
same,remaining activity at 10 µM,[24],0.87%
same,remaining activity at 10 µM,[25],95.7%
same,remaining activity at 10 µM,[26],1.86%
same,remaining activity at 10 µM,[27],24.6%
same,remaining activity at 10 µM,[28],6.47%
same,remaining activity at 10 µM,[29],1.4%
same,remaining activity at 10 µM,[30],4.66%
same,remaining activity at 10 µM,[31],108%
same,remaining activity at 10 µM,[32],18%
